# Results reported in patent US11154589B2, “Antimicrobial composition combinations comprising star shaped peptide polymers” (The University of Melbourne, priority 2016, dated 2021).
# Values joined by “and” are separate entries in the source; they are usually repeats but may differ in a detail not shown here. Identical values can stand only once. Marks after values point to notes of the source that are not given here.
# What was measured:
# [1] = test system: CMDR P. aeruginosa (FADDI-PA067); assay: S16-antibiotic co-administration, synergy by Bliss Independence and HSA models; format: cell-based, Pseudomonas aeruginosa
# Procedure: (§1) The 96-well plate was then incubated at 37° C. for 1.5 or 3 h. For each well, microbial solution was diluted with saline (0.9% NaCl solution) using an appropriate dilution factor and placed on a LB agar plate (LB broth containing 15 g/L Oxoid Blood Agar Base No. 2). For E. coli, K. pneumoniae, and A. Baumannii (ATCC 19606 and FADDI-AB156), the agar plates were incubated overnight at room temperature, and then at 37° C. with aeration for 2 h. For P. Aeruginosa (ATCC 47085 and FADDI-PA067), the agar plates were incubated at 37° C. with aeration. The number of colony-forming units (CFU) was counted and expressed as CFU/mL. Positive controls consisting of cells without any treatment were used. […] A minimum of two independent experiments (biological replicates) of the assay were conducted and three technical replicates were used in each experiment. Data is expressed as mean±standard deviation (SD) and analysed using student's t-test.
# (§2) The Bliss Independence and HSA models were used to calculate drug synergism. […] Biotechnol. 31, 160-165 (2013). With the Bliss Independence model, synergism was calculated using the formula, BICAB=A+B−AB (1), where A and B are the effects of the two drugs in isolation and BICAB is the combined effect of the two drugs as predicted by the Bliss Independence model. […] In the HSA model, if CAB is greater than the greater of A and B, CAB>max(A, B), synergy is observed. The quantitative effect of the compounds when administered alone (i.e., A and B) or in combination (i.e., CAB) was defined as the fractional reduction of the population, R=1−CFUt/CFU0, where CFUt is the CFU/mL measured after treatment, and CFU0 is the CFU/mL measured before treatment.
# [2] = test system: CMDR P. aeruginosa (FADDI-PA067); assay: MBC determination (in vitro antimicrobial experiment, CFU counting); format: cell-based, Pseudomonas aeruginosa; conditions: compound alone
# Procedure: (§3) Freeze-dried cultures of Escherichia coli (E. coli, ATCC 25922), Klebsiella pneumoniae (K. pneumoniae, ATCC 13883), Pseudomonas aeruginosa (P. aeruginosa, ATCC 47085), Acinetobacter baumannii (A. baumannii, ATCC 19606), colistin and multidrug-resistant (CMDR) A. baumannii (FADDI-AB156), and CMDR P. aeruginosa (FADDI-PA067) were grown aerobically and maintained by passage at ambient temperature on horse blood agar (10% v/v defibrinated horse blood, 4.4% w/v Oxoid Blood Agar Base No. 2). Overnight cultures were made from transferring a colony (ca. half a loop) from the agar plates to culture tubes containing sterilized Luria-Bertani broth (LB, 1% w/v Bacto™ Tryptone, 1% w/v NaCl, 0.5% w/v Oxoid Yeast Extract) (20 mL). Bacterial cultures were incubated overnight at 37° C. with aeration and without agitation, with the exception of the two P. aeruginosa strains (ATCC 47085 and FADDI-PA067) which were cultured at 37° C. with aeration and agitation (150 rpm). On the next day, for E. coli, K. pneumonia, P. aeruginosa (ATCC 47085), and CMDR P. aeruginosa (FADDI-PA067), small aliquots (i.e., 0.5-3 mL) were taken from the culture tubes, further diluted with LB (20 mL), and incubated for 3-4 h at 37° C. with aeration before use. All bacterial cultures were cultured without agitation, with the exception of P. aeruginosa ATCC 47085 and FADDI-PA067 which were cultured with shaking at 150 rpm. For A. baumannii, an aliquot of 0.5 mL was taken from the overnight culture tube, further diluted with LB (200 mL), and incubated overnight at 37° C. with aeration before use.
# as §1
# [3] = test system: Pseudomonas aeruginosa (P. aeruginosa, ATCC 47085); assay: as above; format: cell-based; conditions: compound alone; P. aeruginosa (wild-type)
# Procedure: as §3, §1
# [4] = test system: Klebsiella pneumoniae (K. pneumoniae, ATCC 13883); assay: as above; format: cell-based; conditions: compound alone
# Procedure: as §3, §1
# [5] = test system: Escherichia coli (E. coli, ATCC 25922); assay: as above; format: cell-based; conditions: compound alone
# Procedure: as §3, §1
# [6] = test system: Acinetobacter baumannii (A. baumannii, ATCC 19606); assay: as above; format: cell-based; conditions: compound alone; A. baumannii (wild-type)
# Procedure: as §3, §1
# [7] = test system: rat hepatoma (H4IIE) cells; assay: Apoptosis/necrosis assay (mammalian cell viability); conditions: single agent at a dose equivalent to its MBC (against CMDR A. baumannii); 90 min incubation
# Procedure: Rat hepatoma cells (H4IIE) were cultivated in DMEM medium (supplemented with 10% FBS, 1× GlutaMAX™, and 1× penicillin-streptomycin) in a humidified atmosphere containing 5% CO2 at 37° C. Cells were seeded in a T75 flask (ca. 3×10^6 cells/ml) and passaged twice a week prior to performing the subsequent cell viability studies.
# Adherent H4IIE cells (obtained from the ATCC, and throughout the course of the study cells were checked for mycoplasma contamination using Mycoplasma stain kit, Myc1, Sigma) were grown to 80% confluence and trypsinised prior to assay. H4IIE cells were chosen for this study as they are standard cell lines used in toxicity studies. Cells were diluted 1:2 with ‘complete’ DMEM and seeded in a 24-well plate (1 mL per well). The cells were incubated at 37° C. in 5% CO2 for 24 h until ca. 95% confluence. The medium was removed. […] The cells were then harvested and all well contents were transferred to round-bottomed polypropylene tubes (5 mL). The cells were washed with cold DPBS, then stained with YO-PRO®-1 and PI (0.2 mL from a stock solution, whereby both dyes were diluted 1:1000 in cold DPBS, per well), and incubated on ice for 20 to 30 min. The cells were analyzed by flow cytometry (Cytomics FC 500 MPL System). Standard compensation was performed using single-colour stained cells. Negative controls using untreated cells were included. […]
# [8] = test system: CMDR A. baumannii (FADDI-AB156); assay: MBC determination (in vitro antimicrobial experiment, CFU counting); format: cell-based, Acinetobacter baumannii; conditions: compound alone
# Procedure: as §3, §1
# [9] = test system: CMDR A. baumannii (FADDI-AB156); assay: S16-antibiotic co-administration, synergy by Bliss Independence and HSA models; format: cell-based, Acinetobacter baumannii
# Procedure: as §1, §2
# [10] = test system: Pseudomonas aeruginosa (P. aeruginosa, ATCC 47085); assay: as above; format: cell-based
# Procedure: as §1, §2
# [11] = test system: Klebsiella pneumoniae (K. pneumoniae, ATCC 13883); assay: as above; format: cell-based
# Procedure: as §1, §2
# [12] = test system: Escherichia coli (E. coli, ATCC 25922); assay: as above; format: cell-based
# Procedure: as §1, §2
# [13] = test system: Acinetobacter baumannii (A. baumannii, ATCC 19606); assay: as above; format: cell-based
# Procedure: as §1, §2
# [14] = S16 and antibiotic co-administered, each at MBC50, 3 h
# [15] = antibiotic in combination with S16, 3 h, Bliss Independence model
# [16] = antibiotic in combination with S16, 3 h, Highest Single Agent model
# [17] = co-administered S16 (at MBC50) and antibiotic, antibiotic concentration giving at least 2-log reduction in CFU/mL, 3 h
structure (smiles),measurement,setting,value
"O=[N+]([O-])[O-].[Ag+] [Ag^+, silver nitrate]",Interaction with S16 as evaluated by the Bliss Independence and HSA models (in words),[1]; 3 h time point,synergize
same,Fold reduction of MBC,[1]; MBCeff with S16 versus MBC alone,6.5 fold
same,MBC in combination,[1]; [14],11.8 µM
same,Antimicrobial activity on co-administration with S16 compared to compounds alone (log change in CFU/mL),"[1]; all compounds at MBC50, t=3 h",Enhanced antimicrobial activity
same,Synergistic? (Yes/No) Bliss*,[1]; [15],Yes
same,Synergistic? (Yes/No) HAS*,[1]; [16],Yes
same,"MBC in combination, MBCeff",[1]; [17],5.9^a μM
same,MBC,[2],38.3 µM
same,MBC,[3],1.2 µM
same,MBC,[4],10.6 µM
same,MBC,[5],3.5 µM
same,MBC,[6],8.2 µM
same,"H4IIE cell viability reduced by, compared to the untreated control",[7],33%
same,MBC,[8],10.6 µM
same,Interaction with S16 as evaluated by the Bliss Independence and HSA models (in words),[9]; 3 h time point,synergize
same,Fold reduction of MBC,[9]; MBCeff in combination versus MBC alone,3.7 fold
same,MBC in combination,[9]; [14],2.9 µM
same,Antimicrobial activity on co-administration with S16 compared to compounds alone (log change in CFU/mL),"[9]; all compounds at MBC50, t=3 h",Enhanced antimicrobial activity
same,Synergistic? (Yes/No) Bliss*,[9]; [15],Yes
same,Synergistic? (Yes/No) HAS*,[9]; [16],Yes
same,"MBC in combination, MBCeff",[9]; [17],2.9 μM and 2.9^a μM
same,Interaction with S16 as evaluated by the Bliss Independence and HSA models (in words),"[10]; P. aeruginosa wild-type, 3 h time point",synergize
same,Antimicrobial activity on co-administration with S16 compared to compounds alone (log change in CFU/mL),"[10]; P. aeruginosa wild-type, all compounds at MBC50, t=3 h",significantly enhanced antimicrobial activity
same,MBC in combination,"[10]; P. aeruginosa, S16 and antibiotic co-administered, each at MBC50, 3 h",0.5 µM
same,Synergistic? (Yes/No) Bliss*,"[10]; antibiotic in combination with S16, P. aeruginosa, 3 h, Bliss Independence model",Yes
same,Synergistic? (Yes/No) HAS*,"[10]; antibiotic in combination with S16, P. aeruginosa, 3 h, Highest Single Agent model",Yes
same,Interaction with S16 as evaluated by the Bliss Independence and HSA models (in words),[11]; 3 h time point,synergize
same,MBC in combination,[11]; [14],5.3 µM
same,Antimicrobial activity on co-administration with S16 compared to compounds alone (log change in CFU/mL),"[11]; all compounds at MBC50, t=3 h",significantly enhanced antimicrobial activity
same,Synergistic? (Yes/No) Bliss*,[11]; [15],Yes
same,Synergistic? (Yes/No) HAS*,[11]; [16],Yes
same,Interaction with S16 as evaluated by the Bliss Independence and HSA models (in words),[12]; 3 h time point,synergize
same,MBC in combination,[12]; [14],1.8 µM
same,Antimicrobial activity on co-administration with S16 compared to compounds alone (log change in CFU/mL),"[12]; all compounds at MBC50, t=3 h",significantly enhanced antimicrobial activity
same,Synergistic? (Yes/No) Bliss*,[12]; [15],Yes
same,Synergistic? (Yes/No) HAS*,[12]; [16],Yes
same,Interaction with S16 as evaluated by the Bliss Independence and HSA models (in words),"[13]; A. baumannii wild-type, 3 h time point",synergize
same,Antimicrobial activity on co-administration with S16 compared to compounds alone (log change in CFU/mL),"[13]; A. baumannii wild-type, all compounds at MBC50, t=3 h",significantly enhanced antimicrobial activity
same,MBC in combination,"[13]; A. baumannii, S16 and antibiotic co-administered, each at MBC50, 3 h",4.1 µM
same,Synergistic? (Yes/No) Bliss*,"[13]; antibiotic in combination with S16, A. baumannii, 3 h, Bliss Independence model",Yes
same,Synergistic? (Yes/No) HAS*,"[13]; antibiotic in combination with S16, A. baumannii, 3 h, Highest Single Agent model",Yes
